The text below walks through data of patent US20160074380A1, “Treatment Of Neurodegenerative Diseases With Combination Of Laquinimod And Fingolimod” (TEVA PHARMACEUTICAL INDUSTRIES LTD., priority 2014, published 2016).

In test [1] the test system is peripheral lymphocyte counts. The test can be described thus: Peripheral lymphocyte counts with fingolimod. In kind it is in vivo. The settings on record: S1P receptor-mediated.
Test [2] relates to cuprizone model. The settings on record: Slovic, 2012, Kim, 2011; cited from earlier work.
The subject of test [3] is mouse-cultured cortical cells. The settings on record: pretreatment; Di Menna, 2013; cited from earlier work.
Test [4] deals with lysolecithin model. The note with it: Hu, 2011; cited from earlier work.
The test system of test [5] is mouse primary microglia. Description: Pro-inflammatory cytokine production in mouse primary microglia. In kind it is cell-based.
Test [6] deals with H2TT (primary neuronal culture) cells. The test can be described thus: Oxidative glutamate toxicity of H2TT cells. The settings on record: prolonged incubation. Format: cell-based.
In test [7] the test system is human microglia. The test can be described thus: Human microglia activation in culture (LPS). In kind it is cell-based. The text has this: In another study, laquinimod reduced microglial activation in culture. The size of CD14 stained human microglia was increased with LPS activation. Also, in FIG. 13, human (C) or mouse (D) microglia elevated TNF-α secretion upon LPS activation, which was attenuated by laquinimod.

As to `CCCCCCCCc1ccc(CCC(N)(CO)CO)cc1` [Fingolimod], the lymphocyte count reduction result in test [1] is “dose dependent”. Moreover, the re-myelination result in test [2] is “not conclusive”; in test [4], “lack of any effect”. In addition, the “protection of neurons against NMDA toxicity” value in test [3] is listed as “protected neurons against NMDA toxicity”. Moreover, the “microglial production of pro-inflammatory cytokine” value in test [5] was “inhibited”.
As to `CCN(C(=O)c1c(O)c2c(Cl)cccc2n(C)c1=O)c1ccccc1` [Laquinimod], the oxidative glutamate toxicity result in test [6] is on record as “protects against oxidative glutamate toxicity”. Further, the “size of CD14 stained human microglia” value in test [7] (LPS activation) is listed as “reduced”. Further, the “microglial production of pro-inflammatory cytokine” value in test [7] (human microglia) is reported as “inhibited”. The TNF-α secretion entry in test [7] (human microglia, LPS activation) is reported as “attenuated”.
